Columns and labels:
[1] = target: T1, Translocator protein (Rattus norvegicus, UniProt P16257); assay: Binding affinity against peripheral benzodiazepine receptor( PBR).
[2] = target: T1, Translocator protein; assay: Displacement of [3H]PK11195 from rat kidney peripheral benzodiazepine receptor (type 2)
[3] = target: T1, Translocator protein; assay: Displacement of [3H]PK11195 from rat kidney peripheral benzodiazepine receptor (type 1)
[4] = target: T1, Translocator protein; assay: Displacement of [3H]Ro-5-4864 from rat cerebral cortex peripheral benzodiazepine receptor; type: tissue-based
[5] = target: T1, Translocator protein; assay: Displacement of [3H]Ro-5-4864 from rat kidney peripheral benzodiazepine receptor
[6] = target: T1, Translocator protein; assay: Displacement of [3H]PK11195 from rat cerebral cortex peripheral benzodiazepine receptor (type 1); type: tissue-based
[7] = target: GABA-A receptor; anion channel; assay: Binding affinity against central benzodiazepine receptor(CBR).; type: protein-complex assay
[8] = target: T1, Translocator protein; assay: Displacement of [3H]PK11195 from rat cerebral cortex peripheral benzodiazepine receptor (type 2); type: tissue-based
[9] = target: T1, Translocator protein; assay: Displacement of [3H]-PK11195 from rat kidney peripheral benzodiazepine receptor (type 2)

T1 sequence (P16257 whole entry, looked up): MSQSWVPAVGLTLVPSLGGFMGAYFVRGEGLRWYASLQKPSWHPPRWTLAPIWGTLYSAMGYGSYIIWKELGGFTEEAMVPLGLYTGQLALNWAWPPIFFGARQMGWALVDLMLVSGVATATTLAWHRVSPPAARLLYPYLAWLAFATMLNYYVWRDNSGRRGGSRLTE

## CN(Cc1ccccc1)C(=O)/C=C1\c2nc3ccccc3cc2C(=O)N1c1ccc(Cl)cc1
[1]
  IC50: > 1000 nM

## CCCN(CCC)C(=O)/C=C1\c2nc3ccccc3cc2C(=O)N1c1ccc(Cl)cc1
[2]
  IC50: 160 nM
[3]
  IC50: 2.7 nM
[4]
  IC50: 120 nM
[5]
  IC50: 150 nM
[6]
  IC50: 4.9 nM
[7]
  IC50: > 1000 nM
[1]
  IC50: 40 nM
[8]
  IC50: 210 nM

## CCCCCCN(CCCCCC)C(=O)CC1c2ncccc2C(=O)N1c1ccc(Cl)cc1 (centres undefined)
[7]
  IC50: > 1000 nM
[1]
  IC50: 1600 nM

## CN(C(=O)/C=C1\c2nc3ccccc3cc2C(=O)N1c1ccc(Cl)cc1)c1ccc(Cl)cc1
[3]
  IC50: 1.1 nM
[4]
  IC50: 4.5 nM
[5]
  IC50: 2 nM
[6]
  IC50: 2.4 nM
[9]
  IC50: 140 nM
[1]
  IC50: 32 nM
[8]
  IC50: 610 nM

## COc1ccc(N(C)C(=O)/C=C2\c3nc4ccccc4cc3C(=O)N2c2ccc(Cl)cc2)cc1
[2]
  IC50: 14 nM
[3]
  IC50: 0.7 nM
[4]
  IC50: 2.3 nM
[5]
  IC50: 1.7 nM
[6]
  IC50: 9.8 nM
[1]
  IC50: 1.9 nM
[8]
  IC50: 320 nM

## CCCN(CCC)C(=O)/C=C1\c2ncccc2C(=O)N1c1ccc(Cl)cc1
[7]
  IC50: > 1000 nM
[1]
  IC50: 290 nM

## CCCCCCN(CCCCCC)C(=O)/C=C1\c2ncccc2C(=O)N1c1ccc(Cl)cc1
[7]
  IC50: > 1000 nM
[1]
  IC50: 33000 nM

## CCCN(CCC)C(=O)C=C1c2nc3ccccc3cc2C(=O)N1c1ccc(Cl)cc1
[1]
  IC50: > 1000 nM

## CCN(Cc1ccccc1)C(=O)/C=C1\c2nc3ccccc3cc2C(=O)N1c1ccc(Cl)cc1
[1]
  IC50: > 1000 nM

## CCCCCCN(CCCCCC)C(=O)/C=C1\c2nc3ccccc3cc2C(=O)N1c1ccc(Cl)cc1
[7]
  IC50: > 1000 nM
[1]
  IC50: 150 nM

## CCCCCCN(CCCCCC)C(=O)CC1c2nc3ccccc3cc2C(=O)N1c1ccc(Cl)cc1 (centres undefined)
[7]
  IC50: > 1000 nM
[1]
  IC50: > 1000 nM

## CCCN(CCC)C(=O)CC1c2nc3ccccc3cc2C(=O)N1c1ccc(Cl)cc1 (centres undefined)
[7]
  IC50: > 1000 nM
[1]
  IC50: > 1000 nM

## O=C1c2cccnc2CN1c1ccc(Cl)cc1
[7]
  IC50: > 1000 nM
[1]
  IC50: > 1000 nM

## CCCN(CCC)C(=O)CC1c2ncccc2C(=O)N1c1ccc(Cl)cc1 (centres undefined)
[7]
  IC50: 860 nM
[1]
  IC50: > 1000 nM

## CCCN(CCC)C(=O)Cc1c(-c2ccc(Cl)cc2)nc2ccc(Cl)cn12 [ALPIDEM]
[7]
  IC50: 28 nM
[1]
  IC50: 7 nM

## CN1CCN(C(=O)OC2c3nccnc3C(=O)N2c2ccc(Cl)cn2)CC1 (centres undefined) [ZOPICLONE]
[7]
  IC50: 29 nM
